According to US5804601A, “Aromatic hydroxamic acid compounds, their production and use” (Takeda Chemical Industries, Ltd., priority 1995, dated 1998):

Tests used:
[1] = test system: TNFα; experiment: LPS-induced TNFα production in the rat mixed cerebral cell culture system (ELISA); assay type: cell-based; details: LPS 10 μg/ml, 24 hours
Protocol: Rat mixed cerebral cell cultures on day 15 after starting cell cultures were used. After removal of the medium, LPS (E. coli 011: B4, Bacto) (Difco Laboratories), 10 μg/ml, and Compound A, 10^-6 or 10^-7 M, were simultaneously added and the final volume was adjusted to 100 μl. After 24 hours of incubation at 37° C., the culture supernatant was collected as a sample for ELISA. The assay for determining TNFα amount was made using Mouse TNFα ELISA Kit (Genzyme) in accordance with its assay protocol.

[2] = test system: NO (nitric oxide) production; experiment: Inhibitory effect on LSP-induced NO (nitric oxide) production in a rat mixed cerebral cell culture system; assay type: cell-based; details: 120 h, LSP 5 μg/ml, 5 days, combined NO3^- and NO2^- in culture supernatant, read-out: inhibition concentration (IC50) against LSP-induced NO production
Protocol: Inhibitory effect on LSP-induced NO (nitric oxide) production in a rat mixed cerebral cell culture system
(1) Rat mixed cerebral cell culture
Rat mixed cerebral cell cultures were prepared by the procedure described in Experimental Example 1.
1. Twenty (20) days after initiation of rat mixed cerebral cell culture, the medium was removed from each well of the 96-well microtiter plate and, instead, 125 μl/well of D-MEM/2% FCS containing 5 μg/ml (final concentration) of LSP (Difco, E. coli 011: B4, Bacto) and a suitable dilution of the test compound was added. As the test sample, a stock DMSO solution of 10^-2 M concentration was prepared and diluted with D-MEM/2% FCS.
2. After a further 5 days of cell culture, the combined amount of NO3^- and NO2^- in the culture supernatant was determined with the NO3^- NO2^- Assay Kit (Cayman Chemical, Catalog No. 780001, U.S.A.). The assays were carried out in accordance with the accompanying protocol.
The IC50 values were determined from a plot of the concentrations of the test compound which caused a 50% decrease in the combined amount of […] and NO3^- in the culture supernatant as compared with the well to which LSP alone had been added in a final concentration of 5 μg/ml without addition of compound A.

[3] = test system: rat mixed cerebral cell culture; experiment: Neutralizing effect on LPS-induced cytotoxicity in a rat mixed cerebral cell culture system (LIC assay), MTT method; assay type: cell-based; details: concentration giving a recovery rate of 50%, usually 4-5 days incubation, read-out: ED50 (the source's name)
Protocol: Neutralizing effect on lipopolysaccharide (LPS)--induced cytotoxicity in a rat mixed cerebral cell culture system (LIC assay)
LPS, a substance known to activate glial cells (astrocytes, microglia), was added to a rat mixed cerebral cell culture system and the compounds which would neutralize the cytotoxicity induced by LPS were screened by the following method.
(1) Neonatal rat mixed cerebral cell culture
From neonatal Crj:CD (SD) rats (1-3 days old, Charles-River Japan, Ltd.), the brains were isolated and placed in ice-cold D-MEM/10% FCS (Dulbecco's cell culture minimal essential medium supplemented with 10% of fetal calf serum, 100 units/ml of penicillin and 100 μg/ml of streptomycin). Then, mixed cerebral cell cultures were carried out in the following steps.
1. The cerebrums were separated from the enucleated brains and the meninges was removed under the stereoscopic microscope.
2. The cerebrums were placed in a nylon-mesh (100-200 μm) bag to filter with the aid of a rubber policeman.
3. Using ice-cold D-MEM/10% FCS, the cells were washed 3 times (1000 rpm, 8 min.). Then, this cell suspension was filtered through a cell strainer (40 μm mesh, Falcon 2340) and the number of viable cells was counted by the trypan blue method.
4. The cells, were seeded in wells of a 96-well microtiter plate (Nunc) at a cell density of 1×10^5 cells/100 μl/well, and started a cell culture at 37° C.
5. One week later, 100 μl/well of D-MEM/10% FCS was added.
6. The plate was further incubated for about 1-2 weeks and the neutralizing activity of the test compound was evaluated by the following method.
(2) Evaluation of neutralizing activity in LPS-induced cytotoxicity
1. Following the rat mixed cerebral cell culture described in (1) (after 2-3 weeks of incubation), the medium was discarded from the respective wells of the 96-well microtiter plate, and 50 μl/well of fresh D-MEM/2% FCS was added.
2. A test sample and LPS (Difco, E. coli 011: B4, Bacto) of a suitable concentration, 25 μl each per well, were respectively added. D-MEM/2% FCS was used as the medium.
As the test sample, each of the compounds shown in Table 32 was dissolved in DMSO at a concentration of 10 ^-2 M and the solution was diluted with D-MEM/2% FCS and submitted for assay.
3. After a suitable period (usually 4-5 days) of incubation, the degree of cytotoxic effect was assessed by the microscopic observation, and MTT method.
(3) MTT [3-(4,5-dimethylthiazol-2-yl)-2,5-diphenyltetra zolium bromide] method
Ten μl of MTT solution (5 mg/ml, Sigma) dissolved in phosphate-buffered saline was added to each well. After 4-6 hours of incubation (37° C., under 10% CO2), 100 μl/well of 0.01N-hydrochloric acid containing 10% SDS was added, whereby the formed formazan was dissolved. After complete dissolution, the absorbance (540-590 nm) was measured for each well.
The ED50 values were determined by calculating the recovery rates by means of the following equation and plotting the concentrations of compounds giving a recovery rate of 50% on graph paper.
Recovery rate (%)=(C-B)×100/(A-B)
[A: the absorbance at 550 nm of the control well to which only the medium had been added
B: the absorbance at 550 nm of the well to which LPS had been added
C: the absorbance at 550 nm of the well to which both LPS and the test compound had been added]

[4] = test system: apomorphine-induced circling in rats pretreated with LPS infused into the unilateral striatum; experiment: Inhibitory effect on the apomorphine-induced circling in rats pretreated with LPS infused into the unilateral striatum; assay type: in vivo, rat; details: for Number of ipsilateral circlings (mean ± S.E.): 3 times, LPS 5 μg, apomorphine 1 mg/kg s.c., 30-minute period, n=4
Protocol: Inhibitory effect on the apomorphine-induced circling in rats pretreated with LPS infused into the unilateral striatum Male Wistar rats (8-9 weeks old) weighing 250-280 g at the operation for LPS infusion were submitted to the experiment. Throughout the experimental period, the animals were group-fed in a vivarium controlled at 24±1° C. and 55±1% R.H., with a light-dark cycle of 12 hr (7:00-19:00 ON) and free access to food (Clea Japan, Inc., CE-2 pellets) and water (tap water). Under pentobarbital (50 mg/kg, i.p.) anesthesia, the rat's head was immobilized in David Kopf's brain stereotaxic apparatus for small animal use and with reference to Pellegrino & Cushman's brain atlas, a 30 G stainless steel needle was indwelled in the unilateral striate body (A8.2, L2.8, H4.3). The infusion amount of LPS was set at 5 μg. LPS was dissolved in 1 μl of phosphate-buffered saline (PBS, pH 7.2) and the solution was infused gradually at a speed of 0.2 μl/min. The infusion needle was kept in position till 3 minutes following infusion and withdrawn only after sufficient diffusion of the drug solution had taken place. After 7-8 days postoperatively, 1 mg/kg of apomorphine was administered subcutaneously and the number of induced circling behavior during a 30-minute period immediately following administration were determined with an automatic counter. Compound A was suspended in 5% aqueous gum arabic solution and the suspension was administered either orally or intraperitoneally at a dose rate of 0.2 ml per 100 g rat body weight. This administration was carried out 3 times, namely 30 minutes before infusion of 5 μg LPS and 3 and 24 hours after the infusion. As a control, physiological saline solution alone was administered intraperitoneally.

Question: `COc1ccc(C(CCCCC(=O)NO)C2=C(C)C(=O)c3ccccc3C2=O)cc1` (stereo not shown) [Compound A, 6-(3-Methyl-1,4-naphthoquinon-2-yl)-6-(4-methoxyphenyl)hexanohydroxamic acid] was tested. Which TNFα ([1]; Compound A 10^-6 M) did it give?
Answer: 230 pg/mL

Question: What about the TNFα ([1]; Compound A 10^-7 M) of the same molecule?
Answer: 790 pg/mL

Question: What about the IC50 [2] of the same molecule?
Answer: 80 nM

Question: And the EC50 [3]?
Answer: 20 nM

Question: And the “Number of ipsilateral circlings (mean ± S.E.)” value ([4]; i.p. (3 mg/kg))?
Answer: 44 ± 15

Question: And the “Number of ipsilateral circlings (mean ± S.E.)” value ([4]; p.o. (30 mg/kg))?
Answer: 65 ± 21

Question: And the “LPS-induced injury of the unilateral striatum (in words)” value ([4]; rat, in vivo)?
Answer: significantly attenuated
